# Assay results published in patent publication US20240415808A1, “Dosage Regimen for Fexuprazan Injection Composition” (Daewoong Pharmaceutical Co., Ltd., priority 2021, published 2024).
# Values joined by “and” are separate entries in the source; they are usually repeats but may differ in a detail not shown here. Identical values can stand only once.
# Tests used:
# [1] = oral vs intravenous two-way crossover clinical trial, safety; type: in vivo, human; settings: healthy adults, single 40 mg oral and 40 mg intravenous
# Source text: (§1) Therefore, in order to compare the safety/PK/PD of the compound of the present invention during single intravenous administration and during single oral administration and derive the bioavailability, the clinical trial was designed as a randomized, open-label, single-dose, two-period, two-way crossover trial in healthy adults. The selection/exclusion criteria were the same as in Experimental Example 4. A total of 8 subjects were enrolled, and four subjects each were randomly assigned to sequence group 1 or sequence group 2 in the order in which they passed the screening criteria. All test subjects completed safety, pharmacokinetic, and pharmacodynamic evaluations according to the planned clinical trial schedule.
# (§2) Testing of the acidity (pH) in the gastrointestinal tract and gastric secretion promoting hormone gastrin were performed from 24 hours before medication to 24 hours after medication. Blood collection for pharmacokinetics and urine collection for pharmacokinetics were performed for 48 hours from the time of medication.
# [2] = system: indomethacin-induced bleeding gastric ulcer; assay: indomethacin-induced bleeding gastric ulcer model using male rats; type: in vivo, rat; settings: for Ulcer index (%): 30 min before indomethacin 80 mg/kg oral, autopsy 5 h; for Ulcer index (%) / Gastric erosion state / Gastric hemorrhage state: mean ± SD; for Gastric erosion state / Gastric hemorrhage state: histopathological examination
# Experimental: In order to evaluate the efficacy of fexuprazan against bleeding gastric ulcers, an indomethacin-induced bleeding gastric ulcer model using male rats was used.
# Specifically, the previously prepared 1-(5-(2,4-difluorophenyl)-1-((3-fluorophenyl)sulfonyl)-4-methoxy-1H-pyrrol-3-yl)-N-methylmethanamine (hereinafter referred to as ‘fexuprazan’) hydrochloride was dissolved in a solution containing 30 wt. % of polyethylene glycol (Polyethylene Glycol 400) polymer in physiological saline. The concentration was adjusted so that 0, 0.1, 0.5, 1, 2 mg/kg based on fexuprazan weight could be administered to each test animal in a liquid volume of 1 mL/kg, and then each test animal was administered through the tail vein as a single dose. In addition, 1 mg/kg of esomeprazole magnesium trihydrate, which is a positive control, based on esomeprazole weight was administered as a single dose through the tail vein in test animals. After 30 minutes, 80 mg/kg of indomethacin was orally administered as a single dose to each test animal to induce gastric bleeding and ulceration. An autopsy was performed 5 hours after administration of indomethacin, and the stomach was removed. Then, the ulcer index (%) was measured using an image program (Leica Application Suite V4), and gastric hemorrhage and erosion state were evaluated through histopathological examination.
# [3] = oral vs intravenous two-way crossover clinical trial, pharmacokinetics / bioavailability; type: in vivo; settings: human, blood, healthy adults; for Cmax: n 8
# Source text: as §1
# A screening visit was performed 3 to 28 days before the start of the clinical trial, and hospital admission was performed 2 days before medication. The first phase medication was performed according to the order group randomly assigned on the morning of the day. A stabilizer (200 mg), a freeze-drying auxiliary agent (200 mg), and the previously prepared fexuprazan hydrochloride (40 mg based fexuprazan weight) were dissolved in water for injection (4 mL), an appropriate amount of acid was added thereto. A composition whose pH was adjusted to 4.0 was administered intravenously, or an excipient (100 mg), a disintegrant (5 mg), and the previously prepared fexuprazan hydrochloride (40 mg based on fexuprazan weight) were mixed and compressed to prepare a tablet, which were administered orally. The hospital discharge was performed on the third day of medication. The second phase medication was performed on the morning of the 8th after hospital admission on the 6th day after the first phase medication. Hospital discharge was performed on the 10th day of medication. Subsequently, a close-out visit was performed between 15 and 18 days after medication (FIG. 6).
# as §2
# [4] = system: acidity in the gastrointestinal tract; assay: injection maintenance therapy test, acidity in the gastrointestinal tract; type: in vivo, human; settings: healthy adults; for Fraction time pH ≥ 6 over 24 hours post-dose (duration %): 40 mg IV over 30 minutes then 4 mg/hr for 71.5 hours; for Fraction time pH ≥ 4 over 24 hours post-dose (duration %) / Mean pH / Median pH: 40 mg IV then 4 mg/hr for 71.5 hours
# Experimental: In order to confirm changes in PD values according to fexuprazan injection maintenance therapy, the test was conducted on eight healthy adults between the ages of 19 and 50. To the test subjects, a total of 100 ml of a solution obtained by mixing 40 mg of a freeze-dried preparation (40 mg/vial) prepared in the same manner as that used in Experimental Example 6, and physiological saline was administered intravenously for 30 minutes. Subsequently, on the first day, a total of 1 L of a solution obtained by mixing 94 mg of freeze-dried formulation (40 mg/vial) and physiological saline was administered intravenously as a maintenance dose for 23.5 hours. On the second and third days, a total of 1 L of a solution obtained by mixing 96 mg of freeze-dried formulation (40 mg/vial) and physiological saline was administered intravenously for 24 hours. That is, as a maintenance dose, a total of 3 L of a solution of 286 mg of lyophilized formulation (40 mg/vial) mixed with physiological saline was administered intravenously for 71.5 hours at a rate of 4 mg/hr. The acidity in the gastrointestinal tract was tested on the first and third days, respectively, and the results are shown in Table 14 and FIG. 15 below.
# [5] = single intravenous dose-escalation clinical trial, safety; type: in vivo, human; settings: healthy adults, single intravenous 10, 20, 40, 80 mg
# Experimental: In order to confirm the safety/PK/PD of the compound of the present invention during intravenous administration, the clinical trial was designed with random assignment, double-blind, placebo-controlled, single dose, and stepwise dose-escalation in healthy adults (Korean/Chinese) between the ages of 19 and 50.
# The freeze-dried composition prepared as above was used, but a total of 28 subjects of 4, 8, 8, and 8 subjects each were enrolled for four dose groups (10 mg, 20 mg, 40 mg, and 80 mg) based on fexuprazan weight, and each group was randomly assigned to test or control groups in the order that they passed the screening criteria at a ratio of 3:1. All test subjects completed safety, pharmacokinetic, and pharmacodynamic evaluations according to the planned clinical trial schedule.
# as §2
# [6] = 0.1 mg/kg single dose tail vein
# [7] = 0.5 mg/kg single dose tail vein
# [8] = intravenous administration (40 mg)
smiles,measurement,setting,value
"CNCc1cn(S(=O)(=O)c2cccc(F)c2)c(-c2ccc(F)cc2F)c1OC [Fexuprazan, 1-(5-(2,4-difluorophenyl)-1-((3-fluorophenyl)sulfonyl)-4-methoxy-1H-pyrrol-3-yl)-N-methylmethanamine]",serious abnormalities or side effects,[1],no serious abnormalities or side effects were observed
same,Ulcer index (%),[2]; [6],9.2 ± 2.3^ %
same,Gastric erosion state,[2]; [6],2.9 ± 1.2
same,Gastric hemorrhage state,[2]; [6],1.5 ± 1.6^
same,Ulcer index (%),[2]; [7],4.0 ± 1.8 %
same,Gastric erosion state,[2]; [7],1.3 ± 1.0
same,Gastric hemorrhage state,[2]; [7],0.5 ± 0.8
same,Ulcer index (%),[2]; 1 mg/kg single dose tail vein,4.2 ± 2.5 %
same,Gastric erosion state,[2]; 1 mg/kg single dose tail vein,0.8 ± 0.7
same,Gastric hemorrhage state,[2]; 1 mg/kg single dose tail vein,0.3 ± 0.5
same,Ulcer index (%),[2]; 2 mg/kg single dose tail vein,4.2 ± 1.5 %
same,Gastric erosion state,[2]; 2 mg/kg single dose tail vein,0.3 ± 0.5
same,Gastric hemorrhage state,[2]; 2 mg/kg single dose tail vein,0.3 ± 0.5
same,minimum effective dose,"[2]; single dose tail vein, ulcer index, gastric hemorrhage and erosion state vs excipient group",0.5 mg/kg
same,AUC(0-inf),[3]; [8],1150 ± 279 ng·h/mL
same,AUC(0-t),[3]; [8],1110 ng·h/mL
same,Tmax,[3]; [8],0.25 h
same,half-life,[3]; [8],572 ± 145 min
same,Cmax,[3]; [8],277 ng/mL
same,AUC(0-inf),[3]; oral administration (40 mg),556 ± 299 ng·h/mL
same,AUC(0-t),[3]; oral administration (40 mg),536 ng·h/mL
same,Tmax,[3]; oral administration (40 mg),2.09 h
same,half-life,[3]; oral administration (40 mg),563 ± 96 min
same,Cmax,[3]; oral administration (40 mg) tablet,49.9 ng/mL
same,Fraction time pH ≥ 6 over 24 hours post-dose (duration %),[4]; Day 1,65.40 ± 18.67%
same,Fraction time pH ≥ 6 over 24 hours post-dose (duration %),[4]; Day 3,76.33 (±15.98) % and 76.33 ± 15.98%
same,Fraction time pH ≥ 4 over 24 hours post-dose (duration %),[4]; Day 1,97.87 ± 1.43%
same,Mean pH,[4]; Day 1,6.17 ± 0.36
same,Median pH,[4]; Day 1,6.28 ± 0.32
same,Fraction time pH ≥ 4 over 24 hours post-dose (duration %),[4]; Day 3,99.85 ± 0.40%
same,Mean pH,[4]; Day 3,6.39 ± 0.35
same,Median pH,[4]; Day 3,6.44 ± 0.28
same,serious abnormalities or side effects,[5],no serious abnormalities or side effects were observed
